Experimental data reported in US20260174766A1, “COMBINATION OF MENIN INHIBITOR(S) AND IMMUNOPROTEASOME INHIBITOR(S) FOR TREATMENT OF LEUKEMIA” (Medizinische Hochschule Hannover, priority 2022, published 2026).

Legend:
MLL-AF9 driven leukemia = experiment: Secondary transplantation of bone marrow from in vivo treated MLL-AF9 mice; set-up: species or system mouse; settings: p<0.0001
Description: For induction of MLL-AF9 (MA9) driven leukemia we used established retroviral MSCV-GFP-based vectors to express MA9 in hematopoietic stem- and progenitor cells (Lineage-negative, Sca1-positive, Kit-positive [LSK] cells). In detail, bone marrow (BM) of LMP7+/+ or LMP7−/− littermates was isolated following standard procedures from 6-12-weeks-old mice. Lineage-depletion was performed using Streptavidin Particles Plus-DM (BD Biosciences, Heidelberg, Germany) and a DynaMag magnet (Thermo Fisher Scientific). Lineage-depleted cells were stained with streptavidin BV421, KIT AF647 and Sca-1 FITC or PE antibodies (all antibodies were received from Biolegend, San Diego, CA, USA) and then used for cell sorting. […] Cells were analyzed 48 hours after first infection for GFP-expression using flow cytometry and 7.5×10^4 GFP+ cells were injected into sublethally irradiated (7 Gy, single dose) primary recipient mice (C57BL/6J; females). […]
To characterize the effects of LMP7/PSMB8 inhibition in more detail, differentiation following PR-957 treatment was assessed. […] Next, the frequency of L-GMP (Lin− c-kit+ Sca1− CD34+ FcgR+) was assessed by flow cytometry, which have been described as the functionally relevant LSC population in MLL-AF9 driven leukemia. […]

non-MLLr cell lines = experiment: Cell growth (cell counting after trypan blue exclusion) of non-MLLr cell lines; type: cell-based, human; settings: 50 nM or 100 nM PR-957, 96 hours, vs DMSO; FIG. 1G right
Description: (§1) MOLM-13, MONO-MAC-6, THP-1, KOPN-8, ML-2, MV-4;11, OCI-AML3, U-937, KASUMI-1, K-562, HL-60 and LAMA-84 cells were purchased from DSMZ (Braunschweig, Germany). Cas9-Blast cell lines are subclones of the respective cell lines and stably transduced with lentiCas9-Blast (Addgene plasmid #52962). Cells were cultured in RPMI 1640 medium (Thermo Fisher Scientific, Waltham, MA, USA) supplemented with 10-20% FBS (Thermo Fisher Scientific) in a humid atmosphere of 5% CO2 at 37° C. MV4;11 cells harboring Menin-inhibitor resistance mediating mutations of Menin were generated by CRISPR-Cas9 technology.
Cellular proliferation was assessed by cell counting after trypan blue exclusion. Apoptosis of cells was measured by flow cytometry using Annexin V/SYTOX® Blue staining following the manufacturer's instruction.

[1] = tested on: Menin-inhibitor resistant cell lines (MV-4;11 M327I, T349M); experiment: Relative growth of Menin-inhibitor resistant MV-4;11 cell lines; type: cell-based, human; settings: resistance mutations M327I and T349M; 50 nM or 100 nM PR-957; FIG. 4L
Description: as §1

COc1ccc(C[C@H](NC(=O)[C@H](C)NC(=O)CN2CCOCC2)C(=O)N[C@@H](Cc2ccccc2)C(=O)[C@]2(C)CO2)cc1 [PR-957, (2S)-3-(4-methoxyphenyl)-N-[(2S)-1-[(2S)-2-methyloxiran-2-yl]-1-oxo-3-phenylpropan-2-yl]-2-[[(2S)-2-[(2-morpholin-4-ylacetyl)amino]propanoyl]amino]propanamide]
median survival of secondary recipients (MLL-AF9 driven leukemia; recipients of PR-957 treated cells, control 21 days, FIG. 2G): 39.5 days
leukemic cells in the peripheral blood (GFP+ WBC) of secondary recipients (MLL-AF9 driven leukemia; two weeks after transplantation of bone marrow of treated mice, FIG. 2F): 1.6 Gpt/L
cell growth in non-MLLr cell lines (non-MLLr cell lines): largely unaffected
sensitivity of Menin-inhibitor resistant cell lines to immunoproteasome inhibition [1]: preserved sensitivity
